In US11203591B2, “Substituted 6-azabenzimidazole compounds” (Gilead Sciences, Inc., priority 2018, dated 2021) one finds IC50 data, which are given here for 18 molecules.

The structures appear in SMILES notation.

Sequence of human HPK1 (MAP4K1) (Q92918 17-274): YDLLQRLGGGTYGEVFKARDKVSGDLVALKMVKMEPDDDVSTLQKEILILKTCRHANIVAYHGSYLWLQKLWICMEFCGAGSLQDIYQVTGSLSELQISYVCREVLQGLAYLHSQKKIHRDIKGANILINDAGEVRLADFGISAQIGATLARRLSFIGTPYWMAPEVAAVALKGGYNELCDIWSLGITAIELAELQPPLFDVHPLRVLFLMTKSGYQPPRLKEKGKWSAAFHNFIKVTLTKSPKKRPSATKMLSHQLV

The test concerns the target human HPK1 (MAP4K1) (Homo sapiens (Human), UniProt Q92918). The test is described as follows: HPK1 IC50 Assay (TR-FRET peptide phosphorylation). In kind it is biochemical. To be noted: recombinant HPK1 kinase domain 0.15 nM, 10 μM ATP, 1 μM STK S1 peptide; geometric mean of multiple experiments. The gist of the method:
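Readout: TR-FRET (665 nm/620 nm) after EDTA stop, detecting STK S1 peptide (1 μM) phosphorylation by 0.15 nM HPK1 kinase domain, ATP-pre-activated, at 10 μM ATP over 3 h, 25° C, pH 7.0. IC50s from four-parameter variable-slope fits, normalized to staurosporine and DMSO, averaged geometrically.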
(In TR-FRET formats the signal depends on donor and acceptor labels being close together.)
As usually defined, the IC50 is the concentration needed to halve the response being measured. On to `CC(C)n1cnc2cc(-c3cnc4c(c3)N([C@H]3C[C@@](C)(N5CCCCC5)C3)C(=O)C4(C)C)nc(Nc3cc(C(=O)NC4(C(F)F)CC4)cc(F)c3F)c21` [Example 242, N-(1-(difluoromethyl)cyclopropyl)-3-((6-(3,3-dimethyl-1-((1s,3s)-3-methyl-3-(piperidin-1-yl)cyclobutyl)-2-oxo-2,3-dihydro-1H-pyrrolo[3,2-b]pyridin-6-yl)-3-isopropyl-3H-imidazo[4,5-c]pyridin-4-yl)amino)-4,5-difluorobenzamide], for which the IC50 was 0.07 nM.
In the case of `CCn1cnc2cc(-c3ccc4c(c3)N([C@H]3C[C@@H](N5CCCCC5)C3)C(=O)C4(C)C)nc(Nc3cc(C(=O)NC)c(C)cc3F)c21` [Example 101] it was 0.2 nM.
As for `CCNC(=O)c1ccc(F)c(Nc2nc(-c3ccc4c(c3)N([C@H]3C[C@@](C)(N5CCCCC5)C3)C(=O)C4(C)C)cc3ncn(C(C)C)c23)c1` [Example 240, 3-((6-(3,3-Dimethyl-1-((1s,3s)-3-methyl-3-(piperidin-1-yl)cyclobutyl)-2-oxoindolin-6-yl)-3-isopropyl-3H-imidazo[4,5-c]pyridin-4-yl)amino)-N-ethyl-4-fluorobenzamide], the IC50 was 0.09 nM.
As for `Cc1ccc(Nc2nc(-c3ccc4c(c3)N([C@H]3C[C@@H](N5CC(C)(C)C5)C3)C(=O)C4(C)C)cc3ncn(C(C)C)c23)cc1C(=O)NC1CC1` [Example 121], the concentration for half-maximal inhibition (IC50) was 0.1 nM.
In the case of `Cc1ccc(Nc2nc(-c3ccc4c(c3)N([C@H]3C[C@@H](N5CCCCC5)C3)C(=O)C4(C)C)cc3ncn(C(C)C)c23)cc1C(=O)NCC(F)F` [Example 20] it was 0.05 nM.
Turning to `CC(=O)N1CCC2(CC1)C(=O)N([C@H]1C[C@@H](N3CCCCC3)C1)c1cc(-c3cc4ncn(C(C)C)c4c(Nc4cc(C(=O)NC(C)C)c(F)cc4F)n3)ccc12` [Example 180], the IC50 amounted to 0.2 nM.
In the case of `CCNC(=O)c1cc(Nc2nc(-c3cnc4c(c3)N([C@H]3C[C@@](C)(N5CCCCCC5)C3)C(=O)C4(C)C)cc3ncn(C(C)C)c23)c(F)c(F)c1Cl` [Example 247, 5-((6-(1-((1s,3s)-3-(azepan-1-yl)-3-methylcyclobutyl)-3,3-dimethyl-2-oxo-2,3-dihydro-1H-pyrrolo[3,2-b]pyridin-6-yl)-3-isopropyl-3H-imidazo[4,5-c]pyridin-4-yl)amino)-2-chloro-N-ethyl-3,4-difluorobenzamide] it was 0.05 nM.
In the case of `CC(C)n1cnc2cc(-c3cnc4c(c3)N([C@H]3C[C@@](C)(N5CCC6CC6C5)C3)C(=O)C4(C)C)nc(Nc3cc(C(=O)NC4(CF)CC4)c(Cl)c(F)c3F)c21` (mixture of isomers) [Example 257, 5-((6-(1-((1s,3s)-3-(3-azabicyclo[4.1.0]heptan-3-yl)-3-methylcyclobutyl)-3,3-dimethyl-2-oxo-2,3-dihydro-1H-pyrrolo[3,2-b]pyridin-6-yl)-3-isopropyl-3H-imidazo[4,5-c]pyridin-4-yl)amino)-2-chloro-3,4-difluoro-N-(1-(fluoromethyl)cyclopropyl)benzamide] it was 0.1 nM.
In the case of `CCNC(=O)c1cc(Nc2nc(-c3cc4c(nc3F)C(C)(C)C(=O)N4[C@H]3C[C@@](C)(N4CCC5CC5C4)C3)cc3ncn(C(C)C)c23)c(F)c(F)c1C` (stereo partly drawn) [Example 255, 5-((6-(1-((1s,3s)-3-(3-azabicyclo[4.1.0]heptan-3-yl)-3-methylcyclobutyl)-5-fluoro-3,3-dimethyl-2-oxo-2,3-dihydro-1H-pyrrolo[3,2-b]pyridin-6-yl)-3-isopropyl-3H-imidazo[4,5-c]pyridin-4-yl)amino)-N-ethyl-3,4-difluoro-2-methylbenzamide] it was 0.1 nM.
As to `Cc1c(C(=O)NC2(C(F)F)CC2)cc(Nc2nc(-c3cnc4c(c3)N([C@H]3C[C@@](C)(N5CC6CCC(C5)O6)C3)C(=O)C4(C)C)cc3ncn(C(C)C)c23)c(F)c1F` [Example 228, 5-((6-(1-((1s,3s)-3-(8-Oxa-3-azabicyclo[3.2.1]octan-3-yl)-3-methylcyclobutyl)-3,3-dimethyl-2-oxo-2,3-dihydro-1H-pyrrolo[3,2-b]pyridin-6-yl)-3-isopropyl-3H-imidazo[4,5-c]pyridin-4-yl)amino)-N-(1-(difluoromethyl)cyclopropyl)-3,4-difluoro-2-methylbenzamide], the half-inhibitory concentration (IC50) was 0.3 nM.
In the case of `CNC(=O)c1cc(Nc2nc(-c3ccc4c(c3)N([C@H]3C[C@@H](N5CCC[C@@H](F)C5)C3)C(=O)C4(C)C)cc3ncn(C(C)C)c23)ccc1C` [Example 106] it was 0.07 nM.
In the case of `CNC(=O)c1cc(Nc2nc(-c3ccc4c(c3)N([C@H]3C[C@@H](N5CCCCC5)C3)C(=O)C43CCN(C(=O)[C@@H](C)O)CC3)cc3ncn(C4CC4)c23)ccc1C` [Example 151] it was 0.05 nM.
Consider `CC(C)n1cnc2cc(-c3cnc4c(c3)N([C@H]3C[C@@H](N5CCCCC5)C3)C(=O)C4(C)C)nc(Nc3cc(C(=O)NC4(C(F)F)CC4)c(Cl)c(F)c3F)c21` [Example 245, 2-chloro-N-(1-(difluoromethyl)cyclopropyl)-5-((6-(3,3-dimethyl-2-oxo-1-((1s,3s)-3-(piperidin-1-yl)cyclobutyl)-2,3-dihydro-1H-pyrrolo[3,2-b]pyridin-6-yl)-3-isopropyl-3H-imidazo[4,5-c]pyridin-4-yl)amino)-3,4-difluorobenzamide], for which the IC50 turned out to be 0.1 nM.
Turning to `Cc1c(C(=O)NC2(C(F)F)CC2)cc(Nc2nc(-c3cnc4c(c3)N([C@H]3C[C@@](C)(N5CCCCC5)C3)C(=O)C4(C)C)cc3ncn(C(C)C)c23)c(F)c1F` [Example 185, N-(1-(difluoromethyl)cyclopropyl)-5-((6-(3,3-dimethyl-1-((1s,3s)-3-methyl-3-(piperidin-1-yl)cyclobutyl)-2-oxo-2,3-dihydro-1H-pyrrolo[3,2-b]pyridin-6-yl)-3-isopropyl-3H-imidazo[4,5-c]pyridin-4-yl)amino)-3,4-difluoro-2-methylbenzamide], the IC50 was 0.1 nM.
For the molecule `CNC(=O)c1cc(Nc2nc(-c3ccc4c(c3)N(C3CC(N5CCC[C@H](C(F)F)C5)C3)C(=O)C4(C)C)cc3ncn(C(C)C)c23)ccc1C` (stereo partly drawn) [Example 105A, 5-((6-(1-((1s,3s)-3-(3-(difluoromethyl)piperidin-1-yl)cyclobutyl)-3,3-dimethyl-2-oxoindolin-6-yl)-3-isopropyl-3H-imidazo[4,5-c]pyridin-4-yl)amino)-N,2-dimethylbenzamide], the IC50 was determined as 0.2 nM.
In the case of `CNC(=O)c1cc(Nc2nc(-c3ccc4c(c3)N([C@H]3C[C@@H](N5CCCCC5)C3)C(=O)C4(C)C)cc3ncn(C(C)C)c23)ccc1Cl` [Example 119] it was 0.07 nM; in that of `CC(C)n1cnc2cc(-c3cnc4c(c3)N([C@H]3C[C@@](C)(N5CCOCC5)C3)C(=O)C4(C)C)nc(Nc3cc(C(=O)NC4(C(F)F)CC4)c(Cl)c(F)c3F)c21` [Example 199, 2-Chloro-N-(1-(difluoromethyl)cyclopropyl)-5-((6-(3,3-dimethyl-1-((1s,3s)-3-methyl-3-morpholinocyclobutyl)-2-oxo-2,3-dihydro-1H-pyrrolo[3,2-b]pyridin-6-yl)-3-isopropyl-3H-imidazo[4,5-c]pyridin-4-yl)amino)-3,4-difluorobenzamide], 0.1 nM; in that of `CNC(=O)c1cc(Nc2nc(-c3ccc4c(c3)N([C@H]3C[C@@H](N5CCCCC5)C3)C(=O)C4(C)C)cc3ncn(C(C)C)c23)ccc1C(F)(F)F` [Example 141], 0.07 nM.
